Experimental data as given in patent publication US6444669B1, “8,8A-DIHYDROINDENO[1,2-D]THIAZOLE DERIVATIVES WHICH CARRY IN THE 2-POSITION A SUBSTITUENT HAVING A SULFONAMIDE STRUCTURE OR SULFONE STRUCTURE; PROCESSES FOR THEIR PREPARATION AND THEIR USE AS MEDICAMENTS” (Aventis Pharma Deutschland GmbH, priority 2000, dated 2002).

Key:
male or female NMRI mice = experiment: Anorectic action: cumulated evaporated milk consumption after 24 h feed withdrawal; assay type: in vivo
Protocol: The anorectic action was tested on male or female NMRI mice. After withdrawal of feed for 24 hours, the test preparation was administered via a stomach tube. Kept individually and with free access to drinking water, the animals were offered evaporated milk 30 minutes after the administration of the preparation. The consumption of evaporated milk was determined half-hourly for 3 hours and the general condition of the animals was observed. The measured milk consumption was compared with that of untreated control animals.

melting point: 160 °C
Structure (SMILES): NS(=O)(=O)c1ccc(C2=NC3(O)c4ccc(Cl)cc4CC3S2)cc1 (stereo not drawn) [Example 5, 4-(6-Chloro-3a-hydroxy-8,8a-dihydro-3aH-indeno[1,2-d]thiazol-2-yl)benzenesulfonamide]
Reduction of the cumulated milk consumption in % of the control (male or female NMRI mice; male animals, oral dose 50 mg/kg, compared with untreated control animals): 95%
cumulated milk consumption of the treated animals (male or female NMRI mice; oral dose 50 mg/kg via stomach tube, N=5, milk consumption determined half-hourly for 3 hours): 5/0.08 ml
